Among the data in US20020059032A1, “Rational selection of putative peptides from identified nucleotide or peptide sequences” (priority 1999, published 2002) are IC50 values, retold here.

Where a SMILES comes first, the peptide text is derived from it.

This test has as its target guinea pig brain membranes. Briefly: Binding test with guinea pig brain membranes. The conditions noted are these: tested on guinea pig brain membranes; read-out: IC50 = 100 μM. As to the method: Binding Assay Alternative Protocol by Skatron
The experimental conditions are identical for all the binding assay protocols except for the fact that: i) the volume R in operation is 200 μl; ii) the test carried out in 96-well Falcon plates iii) the reaction is directly stopped by filtration on filterMat (ref. 11734) Skatron and the radioactivity associated with the filtrate is evaluated: either directly with a γ counter for the peptides labelled with […]: or with a […] in the presence of 5 ml of scintillating liquid.
Membrane Preparations of Guinea Pig Brains and Binding Assay
The guinea pigs are sacrificed by rupturing their cervical vertibrae, decapitated, and the brains are removed very rapidly and placed into a sucrose-Tris-HCl buffer (0.32 M sucrose 5 mM, Tris-HCl, 0.1 g/l bacitracin) at 4° C. (about 10 ml of buffer per brain). The brains are then homogenized using a Potter device and the homogenate is placed in incubation for 30 minutes at 37° C. under agitation, then centrifuged twice for 35 minutes at 100,000×g at 4° C. The protein content of the membrane preparations is evaluated according to the Bradford method (BioRad, according to the manufacturers protocol).
Bonding of Labelled Agonists to the Guinea Pig Brain Membrane Preparation The membranes are placed in a buffer (50 mM of Tris-HCl, 5 mM of MgCl2 and 0.1 g/l of bacitracin) at the desired protein concentration (iodized CCK bond, 0.1 mg of protein/ml; iodized gastrin bond: 0.5 mg of proteins/ml). They are then incubated in the presence of a labelled ligand in a total volume of 500 μl (about 10 pM for the iodized CCK8, 20 pM for the iodized gastrin13), 50-80 minutes at 25° C., and in the presence or absence of cold agonists. The reaction is stopped with 3 ml of additional BSA buffer (20 g/l) at 4° C., the tubes are centrifuged at 10,000×g, the supernatant is drawn off and the radioactivity associated with the precipitate is evaluated with a γ counter.
On to `CC[C@H](C)[C@H](NC(=O)[C@H](C)NC(=O)[C@H](C)NC(=O)[C@@H](NC(=O)[C@H](CO)NC(=O)[C@H](C)NC(=O)[C@H](Cc1ccccc1)NC(=O)[C@H](Cc1ccc(O)cc1)NC(=O)[C@H](CCC(N)=O)NC(=O)[C@@H](NC(=O)[C@@H](N)C(C)C)[C@@H](C)CC)[C@@H](C)CC)C(=O)NCC(=O)N[C@@H](CC(=O)O)C(=O)N[C@@H](CCCNC(=N)N)C(N)=O` [Example 52, H-VIQYFASIAAIGDR-NH2] (H-VIQYFASIAAIGDR-NH2), for which the IC50 was 7000 nM. To `CC(C)[C@H](NC(=O)[C@@H](NC(=O)[C@H](CCCCN)NC(=O)[C@@H]1CCCN1C(=O)[C@@H](NC(=O)[C@@H](NC(=O)[C@H](C)NC(=O)[C@H](CCCNC(=N)N)NC(=O)[C@@H]1CCCN1)[C@@H](C)O)[C@@H](C)O)[C@@H](C)O)C(=O)N[C@@H](CCCNC(=N)N)C(=O)N[C@@H](CO)C(N)=O` [Example 42, H-PRATTPKTVRS-NH2] (H-PRATTPKTVRS-NH2) belongs 560 nM. To `CC(C)C[C@H](NC(=O)[C@H](CC(C)C)NC(=O)[C@@H](N)CO)C(=O)N[C@@H](CO)C(=O)N[C@@H](CCCCN)C(=O)N[C@H](C(=O)N[C@@H](CO)C(=O)N[C@@H](CCC(N)=O)C(N)=O)C(C)C` [Example 7, H-SLLSKVSQ-NH2] (H-SLLSKVSQ-NH2) belongs 430 nM. To `CC(C)[C@H](NC(=O)[C@H](C)NC(=O)[C@@H](NC(=O)[C@H](Cc1c[nH]c2ccccc12)NC(=O)[C@@H]1CCCN1)[C@@H](C)O)C(=O)N[C@@H](CC(=O)O)C(=O)N[C@H](C(=O)N[C@@H](CO)C(=O)N[C@H](C(=O)N[C@@H](CC(=O)O)C(N)=O)C(C)C)[C@@H](C)O` [Example 51, H-PWTAVDTSVD-NH2] (H-PWTAVDTSVD-NH2) belongs 140 nM; to `CSCC[C@H](NC(=O)[C@H](CC(C)C)NC(=O)CNC(=O)[C@H](Cc1ccccc1)NC(=O)[C@H](Cc1ccccc1)NC(=O)[C@H](CCC(N)=O)NC(=O)[C@H](CCC(N)=O)NC(=O)[C@@H]1CCCN1C(=O)[C@H](CCCCN)NC(=O)[C@@H]1CCCN1C(=O)[C@@H](N)Cc1ccc(O)cc1)C(N)=O` [Example 64, H-YPKPQQFFGLM-NH2] (H-YPKPQQFFGLM-NH2), 1 nM; to `CC[C@H](C)[C@H](NC(=O)[C@@H]1CCCN1C(=O)[C@@H](NC(=O)[C@H](Cc1ccccc1)NC(=O)[C@H](CC(C)C)NC(=O)[C@@H](NC(=O)[C@H](CO)NC(=O)CNC(=O)[C@H](CC(C)C)NC(=O)[C@H](CC(C)C)NC(=O)[C@@H]1CCCN1)[C@@H](C)O)[C@@H](C)CC)C(N)=O` [Example 12, H-PLLGSTLFIPI-NH2] (H-PLLGSTLFIPI-NH2), 20 nM. Regarding `C[C@@H](O)[C@H](NC(=O)[C@@H](N)CCC(=O)O)C(=O)N[C@@H](CCCCN)C(=O)N[C@@H](Cc1c[nH]cn1)C(=O)NCC(=O)NCC(=O)N[C@@H](Cc1c[nH]cn1)C(=O)N[C@@H](CCCCN)C(=O)N[C@@H](CC(N)=O)C(N)=O` [Example 49, H-ETKHGGHKN-NH2] (H-ETKHGGHKN-NH2), the IC50 stood at 330 nM. In the case of `CC(C)C[C@H](NC(=O)[C@H](CCC(=O)O)NC(=O)[C@H](CC(=O)O)NC(=O)[C@H](CC(C)C)NC(=O)[C@@H](NC(=O)[C@H](Cc1ccccc1)NC(=O)[C@H](C)NC(=O)[C@H](Cc1c[nH]cn1)NC(=O)[C@H](CO)NC(=O)[C@H](CO)NC(=O)[C@@H](N)CC(=O)O)[C@@H](C)O)C(=O)N[C@@H](CCCNC(=N)N)C(N)=O` [Example 17, H-DSSHAFTLDELR-NH2] (H-DSSHAFTLDELR-NH2), the IC50 turned out to be 680 nM. For `CC[C@H](C)[C@H](NC(=O)[C@H](CCCNC(=N)N)NC(=O)[C@H](CC(C)C)NC(=O)[C@H](CC(C)C)NC(=O)CNC(=O)[C@@H](NC(=O)[C@@H](N)Cc1c[nH]cn1)C(C)C)C(=O)N[C@@H](CCCCN)C(N)=O` [Example 69, H-HVGLLRIK-NH2] (H-HVGLLRIK-NH2), the IC50 came to 37 nM. To `CC[C@H](C)[C@H](NC(=O)[C@H](CO)NC(=O)[C@H](Cc1ccccc1)NC(=O)[C@@H]1CCCN1C(=O)[C@@H](NC(=O)[C@H](Cc1ccccc1)NC(=O)[C@H](C)NC(=O)[C@H](CC(=O)O)NC(=O)[C@@H](N)CO)C(C)C)C(N)=O` [Example 22, H-SDAFVPFSI-NH2] (H-SDAFVPFSI-NH2) belongs 2800 nM; to `CC(C)C[C@H](NC(=O)[C@H](CO)NC(=O)[C@@H](NC(=O)[C@H](CC(=O)O)NC(=O)[C@@H](N)CO)[C@@H](C)O)C(=O)N[C@H](C(=O)N[C@@H](Cc1c[nH]c2ccccc12)C(=O)N[C@@H](CC(N)=O)C(=O)N[C@@H](CO)C(=O)N[C@H](C(=O)N[C@@H](CCCCN)C(N)=O)C(C)C)[C@@H](C)O` [Example 27, H-SDTSLTWNSVK-NH2] (H-SDTSLTWNSVK-NH2), 680 nM; to `CSCC[C@H](NC(=O)[C@@H](N)CC(=O)O)C(=O)N[C@H](C(=O)N[C@H](C(=O)N[C@@H](Cc1ccccc1)C(=O)N[C@@H](CC(C)C)C(=O)N[C@@H](CC(=O)O)C(=O)NCC(=O)NCC(=O)N[C@@H](CCC(N)=O)C(=O)N[C@@H](CC(C)C)C(=O)NCC(=O)N[C@H](C(=O)N[C@@H](CC(C)C)C(=O)N[C@H](C(N)=O)C(C)C)[C@@H](C)O)C(C)C)C(C)C` [Example 18, H-DMVVFLDGGQLGTLV-NH2] (H-DMVVFLDGGQLGTLV-NH2), 800 nM. To `CC[C@H](C)[C@H](NC(=O)[C@H](CCC(=O)O)NC(=O)[C@H](C)NC(=O)[C@@H](N)C(C)C)C(=O)N[C@@H](CCC(N)=O)C(=O)NCC(=O)N[C@@H](Cc1c[nH]cn1)C(=O)N[C@@H](C)C(=O)NCC(N)=O` [Example 32, H-VAEIQGHAG-NH2] (H-VAEIQGHAG-NH2) belongs 200 nM; to `CC[C@H](C)[C@H](NC(=O)[C@H](CCCCN)NC(=O)[C@@H](NC(=O)[C@H](CC(C)C)NC(=O)[C@@H](NC(=O)CNC(=O)[C@@H](N)CO)[C@@H](C)O)[C@@H](C)CC)C(=O)N[C@@H](Cc1ccccc1)C(=O)N[C@@H](CCC(N)=O)C(=O)N[C@@H](C)C(=O)N[C@@H](CO)C(N)=O` [Example 47, H-SGTLIKIFQAS-NH2] (H-SGTLIKIFQAS-NH2), 300 nM; to `CC(C)C[C@H](NC(=O)[C@@H](N)CCC(N)=O)C(=O)N[C@@H](Cc1c[nH]c2ccccc12)C(=O)N[C@@H](CC(=O)O)C(=O)N[C@H](C(=O)N[C@@H](C)C(=O)N[C@@H](Cc1c[nH]cn1)C(=O)N[C@@H](CO)C(=O)N[C@H](C(=O)N[C@@H](CCCCN)C(=O)N[C@@H](CCC(=O)O)C(=O)N[C@@H](CCCCN)C(=O)N[C@@H](Cc1ccccc1)C(N)=O)C(C)C)C(C)C` [Example 54, H-QLWDVAHSVKEKF-NH2] (H-QLWDVAHSVKEKF-NH2), 300 nM. To `CC[C@H](C)[C@H](NC(=O)[C@H](C)NC(=O)[C@@H](NC(=O)[C@H](CCC(=O)O)NC(=O)[C@H](CCC(=O)O)NC(=O)[C@@H](NC(=O)CNC(=O)[C@H](Cc1ccccc1)NC(=O)[C@@H](NC(=O)[C@H](CC(=O)O)NC(=O)[C@@H](N)[C@@H](C)O)[C@@H](C)CC)C(C)C)[C@@H](C)O)C(N)=O` [Example 56, H-TDIFGVEETAI-NH2] (H-TDIFGVEETAI-NH2) belongs 730 nM; to `CC(C)C[C@H](NC(=O)[C@H](C)N)C(=O)N[C@@H](CCC(=O)O)C(=O)N[C@@H](Cc1c[nH]c2ccccc12)C(=O)N[C@@H](CC(C)C)C(=O)NCC(=O)N[C@@H](C)C(=O)N[C@@H](CC(=O)O)C(=O)N[C@@H](CCCNC(=N)N)C(=O)N[C@@H](CC(N)=O)C(=O)N[C@@H](CCC(=O)O)C(N)=O` [Example 37, H-ALEWLGADRNE-NH2] (H-ALEWLGADRNE-NH2), 800 nM; to `CC(C)C[C@H](NC(=O)CNC(=O)[C@H](CC(C)C)NC(=O)[C@H](CC(N)=O)NC(=O)[C@H](CCCNC(=N)N)NC(=O)[C@H](CC(C)C)NC(=O)[C@@H](NC(=O)[C@H](CO)NC(=O)[C@@H](NC(=O)[C@H](CO)NC(=O)[C@@H](N)Cc1ccccc1)C(C)C)[C@@H](C)O)C(N)=O` [Example 46, H-FSVSTLRNLGL-NH2] (H-FSVSTLRNLGL-NH2), 100 nM. As for `CSCC[C@H](NC(=O)[C@H](Cc1ccccc1)NC(=O)[C@H](Cc1ccc(O)cc1)NC(=O)[C@H](CC(N)=O)NC(=O)[C@@H](N)CO)C(=O)N1CCC[C@H]1C(=O)N[C@@H](Cc1ccccc1)C(=O)N[C@@H](CO)C(=O)N[C@@H](C)C(N)=O` [Example 21, H-SNYFMPFSA-NH2] (H-SNYFMPFSA-NH2), the IC50 was 160 nM. To `CC[C@H](C)[C@H](NC(=O)[C@H](Cc1c[nH]cn1)NC(=O)[C@@H](N)CC(C)C)C(=O)N[C@@H](CO)C(=O)N[C@@H](Cc1c[nH]cn1)C(=O)N[C@@H](CC(=O)O)C(=O)N[C@@H](CCSC)C(=O)N[C@H](C(=O)NCC(=O)N1CCC[C@H]1C(=O)N[C@@H](CC(=O)O)C(N)=O)[C@@H](C)O` [Example 19, H-LHISHDMTGPD-NH2] (H-LHISHDMTGPD-NH2) belongs 700 nM; to `CC(C)C[C@H](NC(=O)[C@H](C)NC(=O)[C@H](CCC(=O)O)NC(=O)[C@H](CCC(N)=O)NC(=O)[C@@H](N)CC(C)C)C(=O)N[C@@H](CO)C(=O)N[C@@H](CCCCN)C(=O)N[C@@H](C)C(=O)N[C@@H](C)C(N)=O` [Example 50, H-LQEALSKAA-NH2] (H-LQEALSKAA-NH2), 1000 nM.

Usually IC50 stands for the concentration needed to halve the response being measured.
